Patent publication US20250179061A1 (SIRONAX LTD., priority 2022, published 2025)
Where a name gives a salt, the structure may show the parent alone.

test system: HT-29 cells; assay: HT-29 necroptosis cell viability assay (TNF-α/SMAC mimetic/zVAD-FMK, CellTiter-Glo); type: cell-based; settings: HT-29 cells stimulated with TNF-α (10 ng/ml), SMAC mimetic (6 μM) and zVAD-FMK (10 μM); 20 hours; CellTiter-Glo ATP luminescence; geometric mean IC50 from 10 points; read-out: Activity
Summary of the method: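 HT-29 cells (~5,000/well, overnight) in FBS-free McCoy's 5A with TNF-α 10 ng/ml, SMAC mimetic 6 μM and zVAD-FMK 10 μM plus 10-point 1:3 compound titration, 20 h at 37°C. ATP measured by CellTiter-Glo luminescence; IC50 as geometric mean of duplicates.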

Question: For `Cc1nc(N2C[C@@H](N)[C@@H]2C)sc1Oc1ccc(-n2ncn(Cc3c(F)cccc3F)c2=O)cc1` [Example 72, 2-(4-((2-((2S,3R)-3-amino-2-methylazetidin-1-yl)-4-methylthiazol-5-yl)oxy)phenyl)-4-(2,6-difluorobenzyl)-2,4-dihydro-3H-1,2,4-triazol-3-one], which IC50 is on record?
Answer: < 100 nM

Question: For `Cc1nc(C(N)=O)sc1Oc1ccc(-n2nc3n(c2=O)C(c2ccccc2)CC3F)cc1F` (stereo not drawn) [Example 80, 5-(2-fluoro-4-(7-fluoro-3-oxo-5-phenyl-3,5,6,7-tetrahydro-2H-pyrrolo[2,1-c][1,2,4]triazol-2-yl)phenoxy)-4-methylthiazole-2-carboxamide], which IC50 is on record?
Answer: < 100 nM

same assay, conditions: Homo sapiens; HT-29 cells stimulated with TNF-α (10 ng/ml), SMAC mimetic (6 μM) and zVAD-FMK (10 μM); 20 hours; CellTiter-Glo ATP luminescence; geometric mean IC50 from 10 points; read-out: Activity

Question: How did the IC50 turn out when `Cc1nc(N2CCC(C#N)C2)sc1Oc1ccc(-n2ncn(Cc3c(F)cccc3F)c2=O)cc1` (stereo not drawn) [Example 54, 1-(5-(4-(4-(2,6-difluorobenzyl)-5-oxo-4,5-dihydro-1H-1,2,4-triazol-1-yl)phenoxy)-4-methylthiazol-2-yl)pyrrolidine-3-carbonitrile] was run?
Answer: < 100 nM

Question: `COC1(C#N)CN(c2nc(C)c(Oc3ccc(-n4ncn(Cc5c(F)cccc5F)c4=O)cc3)s2)C1` [Example 55, 1-(5-(4-(4-(2,6-difluorobenzyl)-5-oxo-4,5-dihydro-1H-1,2,4-triazol-1-yl)phenoxy)-4-methylthiazol-2-yl)-3-methoxyazetidine-3-carbonitrile] was tested. Which IC50 did it give?
Answer: < 100 nM

Question: With `Cc1nc(N2CCOC2=O)sc1Oc1ccc(-n2ncn(Cc3c(F)cccc3F)c2=O)cc1F` [Example 56, 3-(5-(4-(4-(2,6-difluorobenzyl)-5-oxo-4,5-dihydro-1H-1,2,4-triazol-1-yl)-2-fluorophenoxy)-4-methylthiazol-2-yl)oxazolidin-2-one] as the compound, how does the IC50 read?
Answer: < 100 nM

Question: How did the IC50 turn out when `Cc1nc(N2CC(C)(OC(F)(F)F)C2)sc1Oc1ccc(-n2ncn(Cc3c(F)cccc3F)c2=O)cc1` [Example 57, 4-(2,6-difluorobenzyl)-2-(4-((4-methyl-2-(3-methyl-3-(trifluoromethoxy)azetidin-1-yl)thiazol-5-yl)oxy)phenyl)-2,4-dihydro-3H-1,2,4-triazol-3-one] was run?
Answer: < 100 nM

Question: How did the IC50 turn out when `Cc1ncsc1Cc1ccc(-n2ncn(Cc3c(F)cccc3F)c2=O)cc1F` [Example 59, 4-(2,6-difluorobenzyl)-2-(3-fluoro-4-((4-methylthiazol-5-yl)methyl)phenyl)-2,4-dihydro-3H-1,2,4-triazol-3-one] was run?
Answer: < 100 nM

Question: Which IC50 does the source give for `Cc1nc(N2CCC(N)(C(F)(F)F)C2)sc1Cc1ccc(-n2ncn(Cc3c(F)cccc3F)c2=O)cc1F` (stereo not drawn) [Example 60, 2-(4-((2-(3-amino-3-(trifluoromethyl)pyrrolidin-1-yl)-4-methylthiazol-5-yl)methyl)-3-fluorophenyl)-4-(2,6-difluorobenzyl)-2,4-dihydro-3H-1,2,4-triazol-3-one formate] here?
Answer: < 100 nM

Question: With `Cc1nc(N2C[C@H](C#N)[C@@H]2C)sc1Cc1ccc(-n2ncn(Cc3c(F)cccc3F)c2=O)cc1F` [Example 61, (2S,3S)-1-(5-(4-(4-(2,6-difluorobenzyl)-5-oxo-4,5-dihydro-1H-1,2,4-triazol-1-yl)-2-fluorobenzyl)-4-methylthiazol-2-yl)-2-methylazetidine-3-carbonitrile formate] as the compound, how does the IC50 read?
Answer: < 100 nM

Question: With `Cc1nc(N2CC(N)(CF)C2)sc1Cc1ccc(-n2ncn(Cc3c(F)cccc3F)c2=O)cc1F` [Example 62, 2-(4-((2-(3-amino-3-(fluoromethyl)azetidin-1-yl)-4-methylthiazol-5-yl)methyl)-3-fluorophenyl)-4-(2,6-difluorobenzyl)-2,4-dihydro-3H-1,2,4-triazol-3-one trifluoroacetate] as the compound, how does the IC50 read?
Answer: < 100 nM

Question: How did the IC50 turn out when `Cc1nc(N2C[C@H](C#N)[C@@H]2C)sc1Cc1ccc(-n2ncn(Cc3c(F)cccc3F)c2=O)cc1` [Example 63, (2S,3S)-1-(5-(4-(4-(2,6-difluorobenzyl)-5-oxo-4,5-dihydro-1H-1,2,4-triazol-1-yl)benzyl)-4-methylthiazol-2-yl)-2-methylazetidine-3-carbonitrile] was run?
Answer: < 100 nM

Question: With `Cc1nc(N2C[C@H](O)[C@@H]2C)sc1Cc1ccc(-n2ncn(Cc3c(F)cccc3F)c2=O)cc1` [Example 64, 4-(2,6-difluorobenzyl)-2-(4-((2-((2S,3S)-3-hydroxy-2-methylazetidin-1-yl)-4-methylthiazol-5-yl)methyl)phenyl)-2,4-dihydro-3H-1,2,4-triazol-3-one] as the compound, how does the IC50 read?
Answer: < 100 nM

Question: With `Cc1nn(-c2ccc(Cc3ccccc3)cc2)c(=O)n1Cc1ccccc1` [Example 65, 4-benzyl-2-(4-benzylphenyl)-5-methyl-2,4-dihydro-3H-1,2,4-triazol-3-one] as the compound, how does the IC50 read?
Answer: < 100 nM

Question: With `O=c1n(Cc2ccccc2)cnn1-c1ccc(Cc2ccccc2)cc1` [Example 66, 4-benzyl-2-(4-benzylphenyl)-2,4-dihydro-3H-1,2,4-triazol-3-one] as the compound, how does the IC50 read?
Answer: < 100 nM

Question: With `Cc1nn(-c2ccc(N(C)c3ccccc3)cc2)c(=O)n1Cc1ccccc1` [Example 67, 4-benzyl-5-methyl-2-(4-(methyl(phenyl)amino)phenyl)-2,4-dihydro-3H-1,2,4-triazol-3-one] as the compound, how does the IC50 read?
Answer: 100 to 1000 nM

Question: With `Cc1nc(N2CC(C(C)(C)N)C2)sc1Oc1ccc(-n2ncn(Cc3c(F)cccc3F)c2=O)cc1` [Example 68, 2-(4-((2-(3-(2-aminopropan-2-yl)azetidin-1-yl)-4-methylthiazol-5-yl)oxy)phenyl)-4-(2,6-difluorobenzyl)-2,4-dihydro-3H-1,2,4-triazol-3-one] as the compound, how does the IC50 read?
Answer: < 100 nM

Question: How did the IC50 turn out when `Cc1nc(N2C[C@@H](N)[C@@H]2C)sc1Oc1ccc(-n2ncn(Cc3c(F)cccc3F)c2=O)cc1` [Example 69, 2-(4-((2-((2S,3R)-3-amino-2-methylazetidin-1-yl)-4-methylthiazol-5-yl)oxy)phenyl)-4-(2,6-difluorobenzyl)-2,4-dihydro-3H-1,2,4-triazol-3-one] was run?
Answer: < 100 nM

Question: With `Cc1nc(N2CC[C@@H]2CN)sc1Oc1ccc(-n2ncn(Cc3c(F)cccc3F)c2=O)cc1` [Example 70, (R)-2-(4-((2-(2-(aminomethyl)azetidin-1-yl)-4-methylthiazol-5-yl)oxy)phenyl)-4-(2,6-difluorobenzyl)-2,4-dihydro-3H-1,2,4-triazol-3-one] as the compound, how does the IC50 read?
Answer: < 100 nM

Question: How did the IC50 turn out when `Cc1nc(N2CC(N)(CO)C2)sc1Oc1ccc(-n2ncn(Cc3c(F)cccc3F)c2=O)cc1` [Example 71, 2-(4-((2-(3-amino-3-(hydroxymethyl)azetidin-1-yl)-4-methylthiazol-5-yl)oxy)phenyl)-4-(2,6-difluorobenzyl)-2,4-dihydro-3H-1,2,4-triazol-3-one] was run?
Answer: < 100 nM

Question: Which IC50 does the source give for `Cc1nc(N2C[C@H](N)[C@@H]2C)sc1Oc1ccc(-n2ncn(Cc3c(F)cccc3F)c2=O)cc1` [Example 73, 2-(4-((2-((2S,3S)-3-amino-2-methylazetidin-1-yl)-4-methylthiazol-5-yl)oxy)phenyl)-4-(2,6-difluorobenzyl)-2,4-dihydro-3H-1,2,4-triazol-3-one] here?
Answer: < 100 nM

Question: With `CCOC1CN(c2nc(C)c(Oc3ccc(-n4ncn(Cc5c(F)cccc5F)c4=O)cc3)s2)C1` [Example 74, 4-(2,6-difluorobenzyl)-2-(4-((2-(3-ethoxyazetidin-1-yl)-4-methylthiazol-5-yl)oxy)phenyl)-2,4-dihydro-3H-1,2,4-triazol-3-one] as the compound, how does the IC50 read?
Answer: < 100 nM

Question: With `Cc1nc(N2CC3(CCOCC3)C2)sc1Oc1ccc(-n2ncn(Cc3c(F)cccc3F)c2=O)cc1` [Example 75, 4-(2,6-difluorobenzyl)-2-(4-((4-methyl-2-(7-oxa-2-azaspiro[3.5]nonan-2-yl)thiazol-5-yl)oxy)phenyl)-2,4-dihydro-3H-1,2,4-triazol-3-one] as the compound, how does the IC50 read?
Answer: < 100 nM

Question: How did the IC50 turn out when `Cc1nc(N2C[C@@H](O)CC2=O)sc1Oc1ccc(-n2ncn(Cc3c(F)cccc3F)c2=O)cc1F` [Example 76, (S)-4-(2,6-difluorobenzyl)-2-(3-fluoro-4-((2-(4-hydroxy-2-oxopyrrolidin-1-yl)-4-methylthiazol-5-yl)oxy)phenyl)-2,4-dihydro-3H-1,2,4-triazol-3-one] was run?
Answer: < 100 nM

Question: How did the IC50 turn out when `N#Cc1cnc(Oc2ccc(-n3ncn(Cc4c(F)cccc4F)c3=O)cc2)s1` [Example 77, 2-(4-(4-(2,6-difluorobenzyl)-5-oxo-4,5-dihydro-1H-1,2,4-triazol-1-yl)phenoxy)thiazole-5-carbonitrile] was run?
Answer: 100 to 1000 nM

Question: For `Cc1nc(Oc2ccc(-n3ncn(Cc4c(F)cccc4F)c3=O)cc2)sc1C` [Example 78, 4-(2,6-difluorobenzyl)-2-(4-((4,5-dimethylthiazol-2-yl)oxy)phenyl)-2,4-dihydro-3H-1,2,4-triazol-3-one], which IC50 is on record?
Answer: 100 to 1000 nM

Question: How did the IC50 turn out when `N#Cc1ncc(Oc2ccc(-n3ncn(Cc4c(F)cccc4F)c3=O)cc2)s1` [Example 79, 5-(4-(4-(2,6-difluorobenzyl)-5-oxo-4,5-dihydro-1H-1,2,4-triazol-1-yl)phenoxy)thiazole-2-carbonitrile] was run?
Answer: < 100 nM

Question: How did the IC50 turn out when `Cc1nc(C(N)=O)sc1Oc1ccc(-n2nc3n(c2=O)C(c2ccccc2)CC3F)cc1F` (stereo not drawn) [Example 81, 5-(2-fluoro-4-(7-fluoro-3-oxo-5-phenyl-3,5,6,7-tetrahydro-2H-pyrrolo[2,1-c][1,2,4]triazol-2-yl)phenoxy)-4-methylthiazole-2-carboxamide] was run?
Answer: < 100 nM

Question: With `NC(=O)c1cnc(Oc2ccc(-n3ncn(Cc4c(F)cccc4F)c3=O)cc2)s1` [Example 82, 2-(4-(4-(2,6-difluorobenzyl)-5-oxo-4,5-dihydro-1H-1,2,4-triazol-1-yl)phenoxy)thiazole-5-carboxamide] as the compound, how does the IC50 read?
Answer: 100 to 1000 nM

Question: For `O=c1n(Cc2c(F)cccc2F)cnn1-c1ccc(Oc2nc3c(s2)CCCC3)cc1` [Example 83, 4-(2,6-difluorobenzyl)-2-(4-((4,5,6,7-tetrahydrobenzo[d]thiazol-2-yl)oxy)phenyl)-2,4-dihydro-3H-1,2,4-triazol-3-one], which IC50 is on record?
Answer: 100 to 1000 nM

Question: `CCOC1CN(c2ncc(Oc3ccc(-n4ncn(Cc5c(F)cccc5F)c4=O)cc3)s2)C1` [Example 84, 4-(2,6-difluorobenzyl)-2-(4-((2-(3-ethoxyazetidin-1-yl)thiazol-5-yl)oxy)phenyl)-2,4-dihydro-3H-1,2,4-triazol-3-one] was tested. Which IC50 did it give?
Answer: < 100 nM
